Laboratory results from ChEMBL document CHEMBL4354834 (J Med Chem, 2020).

How the values were obtained:
[1] = Volume of distribution at steady state in rat at 1.13 mg/kg, iv or 2.27 mg/kg, po; format: ADME, organism-based; details: in vivo, read-out: Vdss
[2] = Protein binding in rat; format: ADME; details: plasma, read-out: PB (converted)
[3] = Half life in rat at 1.13 mg/kg, iv or 2.27 mg/kg, po; format: ADME, organism-based; details: in vivo
[4] = AUC in rat at 2.27 mg/kg, po; format: ADME, organism-based; details: in vivo
[5] = Clearance in rat at 1.13 mg/kg, iv or 2.27 mg/kg, po; format: ADME, organism-based; details: in vivo
[6] = Oral bioavailability in rat at 2.27 mg/kg; format: ADME, organism-based; details: in vivo
[7] = Metabolic stability in human liver microsomes assessed as half life; format: ADME, Microsome
[8] = target: Vitamin K-dependent protein C (Homo sapiens, UniProt P04070); assay: Inhibition of activated human protein C using pyro-Glu-Pro-Arg-pNA as substrate by spectrophotometry
Coagulation factor X = Coagulation factor X (Homo sapiens, UniProt P00742); assay: Inhibition of activated human coagulation factor X using N-benzoyl-Ile-Glu-OH-OMe-Gly-Arg-pNA as substrate by spectrophotometry
Coagulation factor VII = target: T1, Coagulation factor VII (Homo sapiens, UniProt P08709); assay: Inhibition of activated human coagulation factor VII using H-(D)-Ile-Pro-Arg-pNA as substrate by spectrophotometry
T1 sequence (P08709 whole entry): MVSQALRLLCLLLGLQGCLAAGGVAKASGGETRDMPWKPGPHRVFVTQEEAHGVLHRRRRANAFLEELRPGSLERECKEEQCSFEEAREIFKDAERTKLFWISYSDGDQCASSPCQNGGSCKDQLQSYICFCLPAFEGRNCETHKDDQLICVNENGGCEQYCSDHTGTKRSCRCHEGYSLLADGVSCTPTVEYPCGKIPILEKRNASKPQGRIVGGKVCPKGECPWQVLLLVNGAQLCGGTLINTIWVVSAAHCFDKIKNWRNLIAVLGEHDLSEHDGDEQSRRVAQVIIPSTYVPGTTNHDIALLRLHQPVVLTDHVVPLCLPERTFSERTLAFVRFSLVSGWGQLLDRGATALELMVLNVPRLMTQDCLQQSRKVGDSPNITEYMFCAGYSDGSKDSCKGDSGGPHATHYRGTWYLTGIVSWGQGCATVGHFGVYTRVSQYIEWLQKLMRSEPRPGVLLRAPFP

[9] = Metabolic stability in rat liver microsomes assessed as half life; format: ADME, Microsome
Coagulation factor XII = target: T2, Coagulation factor XII (Homo sapiens, UniProt P00748); assay: Inhibition of activated human coagulation factor XII using H-(D)-CHT-Gly-Arg-pNA as substrate by spectrophotometry
T2 sequence (P00748 whole entry): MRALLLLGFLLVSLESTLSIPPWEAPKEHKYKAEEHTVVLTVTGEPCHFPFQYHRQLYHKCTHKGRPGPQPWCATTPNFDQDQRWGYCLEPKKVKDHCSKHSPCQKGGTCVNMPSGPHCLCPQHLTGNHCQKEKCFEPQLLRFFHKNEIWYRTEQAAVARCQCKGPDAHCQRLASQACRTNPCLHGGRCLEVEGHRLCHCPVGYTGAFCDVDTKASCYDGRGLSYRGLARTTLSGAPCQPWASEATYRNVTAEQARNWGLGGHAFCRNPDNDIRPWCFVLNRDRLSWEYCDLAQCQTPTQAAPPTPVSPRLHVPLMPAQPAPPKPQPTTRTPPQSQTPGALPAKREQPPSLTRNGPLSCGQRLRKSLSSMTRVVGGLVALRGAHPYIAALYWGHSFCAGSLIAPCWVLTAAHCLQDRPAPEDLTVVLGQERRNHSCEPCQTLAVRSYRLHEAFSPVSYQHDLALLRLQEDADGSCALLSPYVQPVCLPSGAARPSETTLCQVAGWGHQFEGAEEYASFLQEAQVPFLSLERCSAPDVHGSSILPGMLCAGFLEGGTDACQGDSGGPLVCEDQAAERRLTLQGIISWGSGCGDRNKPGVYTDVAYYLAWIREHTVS

Plasminogen = Plasminogen (Homo sapiens, UniProt P00747); assay: Inhibition of human plasmin using H-(D)-Val-Leu-Lys-pNA as substrate by spectrophotometry
Prothrombin = Prothrombin (Homo sapiens, UniProt P00734); assay: Inhibition of human alpha-thrombin using pyro-Glu-Pro-Arg-pNA as substrate by spectrophotometry
[10] = Metabolic stability in dog liver microsomes assessed as half life; format: ADME, Canis lupus familiaris, Microsome
[11] = Permeability of the compound across apical side to basolateral side in human Caco2 cells; format: ADME, cell-based; details: Caco-2, read-out: permeability
[12] = Permeability of the compound across basolateral side to apical side in human Caco2 cells; format: ADME, cell-based; details: Caco-2, read-out: permeability
Trypsin = Trypsin (Homo sapiens, UniProt P07477+P07478+P35030); assay: Inhibition of human trypsin using N-benzoyl-Ile-Glu-OH-OMe-Gly-Arg-pNA as substrate by spectrophotometry; format: protein assay
Coagulation factor IX = Coagulation factor IX (Homo sapiens, UniProt P00740); assay: Inhibition of activated human coagulation factor IX using 7-amino-4-methylcoumarin as substrate by spectrofluorimetry
Plasma kallikrein = Plasma kallikrein (Homo sapiens, UniProt P03952); assay: Inhibition of human kallikrein using H-(D)-Pro-Phe-Arg-pNA as substrate by spectrophotometry
[13] = Metabolic stability in cynomolgus monkey liver microsomes assessed as half life; format: ADME, Macaca fascicularis, Microsome
[14] = target: Urokinase-type plasminogen activator (Homo sapiens, UniProt P00749); assay: Inhibition of activated human urokinase using pyro-Glu-Gly-Arg-pNA as substrate by spectrophotometry
[15] = Half life in rat at 0.50 mg/kg, iv or 1.0 mg/kg, po; format: ADME, organism-based; details: in vivo
[16] = Oral bioavailability in rat at 1.0 mg/kg; format: ADME, organism-based; details: in vivo
[17] = Volume of distribution at steady state in rat at 0.50 mg/kg, iv or 1.0 mg/kg, po; format: ADME, organism-based; details: in vivo, 0.5 mg/kg, read-out: Vdss
[18] = Clearance in rat at 0.50 mg/kg, iv or 1.0 mg/kg, po; format: ADME, organism-based; details: in vivo, 0.5 mg/kg

Sequence of Coagulation factor IX (P00740 47-191 limits assumed): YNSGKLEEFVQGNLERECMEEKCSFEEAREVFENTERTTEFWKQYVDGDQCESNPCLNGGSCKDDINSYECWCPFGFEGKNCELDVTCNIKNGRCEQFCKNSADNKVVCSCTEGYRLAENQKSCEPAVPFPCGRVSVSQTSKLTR
Sequence of Coagulation factor IX (P00740 227-461 limits assumed): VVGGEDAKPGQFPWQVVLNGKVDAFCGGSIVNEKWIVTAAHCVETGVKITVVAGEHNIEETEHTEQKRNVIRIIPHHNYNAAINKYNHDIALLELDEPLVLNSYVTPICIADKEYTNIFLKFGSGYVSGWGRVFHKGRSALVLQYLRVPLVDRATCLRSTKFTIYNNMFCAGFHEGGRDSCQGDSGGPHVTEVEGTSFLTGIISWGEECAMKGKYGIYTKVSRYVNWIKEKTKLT
Sequence of Plasma kallikrein (P03952 20-390 limits assumed): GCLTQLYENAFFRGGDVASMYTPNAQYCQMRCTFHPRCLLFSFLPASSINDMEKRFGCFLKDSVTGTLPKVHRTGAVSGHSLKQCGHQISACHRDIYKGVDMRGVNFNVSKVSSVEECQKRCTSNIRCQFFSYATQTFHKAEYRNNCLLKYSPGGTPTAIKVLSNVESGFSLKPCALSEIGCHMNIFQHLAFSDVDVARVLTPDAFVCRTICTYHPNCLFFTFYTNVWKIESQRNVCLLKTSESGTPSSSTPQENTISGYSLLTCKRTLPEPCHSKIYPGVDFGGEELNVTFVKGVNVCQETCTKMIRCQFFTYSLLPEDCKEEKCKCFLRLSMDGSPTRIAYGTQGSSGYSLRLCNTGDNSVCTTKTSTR
Sequence of Plasma kallikrein (P03952 391-638 limits assumed): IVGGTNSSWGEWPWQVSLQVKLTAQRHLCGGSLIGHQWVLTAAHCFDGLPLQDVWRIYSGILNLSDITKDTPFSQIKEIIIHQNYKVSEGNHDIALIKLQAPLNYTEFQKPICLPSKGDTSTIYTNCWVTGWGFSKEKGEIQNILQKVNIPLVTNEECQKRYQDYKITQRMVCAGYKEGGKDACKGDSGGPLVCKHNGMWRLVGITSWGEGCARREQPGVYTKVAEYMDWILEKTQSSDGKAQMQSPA
Sequence of Coagulation factor X (P00742 41-179 limits assumed): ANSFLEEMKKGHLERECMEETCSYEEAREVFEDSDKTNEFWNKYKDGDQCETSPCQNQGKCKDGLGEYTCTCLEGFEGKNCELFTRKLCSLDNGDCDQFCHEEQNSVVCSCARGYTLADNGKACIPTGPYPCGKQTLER
Sequence of Coagulation factor X (P00742 235-488 limits assumed): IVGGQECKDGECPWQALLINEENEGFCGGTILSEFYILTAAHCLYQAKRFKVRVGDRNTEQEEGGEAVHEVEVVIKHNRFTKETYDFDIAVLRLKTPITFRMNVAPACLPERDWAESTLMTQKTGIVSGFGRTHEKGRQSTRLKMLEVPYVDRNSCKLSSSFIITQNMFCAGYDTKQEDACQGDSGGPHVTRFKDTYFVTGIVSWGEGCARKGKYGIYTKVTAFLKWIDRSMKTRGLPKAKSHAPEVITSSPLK
Sequence of Vitamin K-dependent protein C (P04070 43-197 limits assumed): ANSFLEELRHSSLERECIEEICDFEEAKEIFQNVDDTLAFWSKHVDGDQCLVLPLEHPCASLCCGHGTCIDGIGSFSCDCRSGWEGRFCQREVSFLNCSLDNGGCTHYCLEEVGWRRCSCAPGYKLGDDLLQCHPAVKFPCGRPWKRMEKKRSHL
Sequence of Vitamin K-dependent protein C (P04070 212-461 limits assumed): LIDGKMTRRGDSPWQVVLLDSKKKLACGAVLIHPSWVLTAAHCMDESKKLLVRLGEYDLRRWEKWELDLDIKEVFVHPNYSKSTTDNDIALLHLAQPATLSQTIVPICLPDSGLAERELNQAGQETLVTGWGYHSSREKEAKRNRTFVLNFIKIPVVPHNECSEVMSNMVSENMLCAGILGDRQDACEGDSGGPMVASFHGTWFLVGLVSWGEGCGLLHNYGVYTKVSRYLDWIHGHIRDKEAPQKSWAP
Sequence of Plasminogen (P00747 97-580 limits assumed): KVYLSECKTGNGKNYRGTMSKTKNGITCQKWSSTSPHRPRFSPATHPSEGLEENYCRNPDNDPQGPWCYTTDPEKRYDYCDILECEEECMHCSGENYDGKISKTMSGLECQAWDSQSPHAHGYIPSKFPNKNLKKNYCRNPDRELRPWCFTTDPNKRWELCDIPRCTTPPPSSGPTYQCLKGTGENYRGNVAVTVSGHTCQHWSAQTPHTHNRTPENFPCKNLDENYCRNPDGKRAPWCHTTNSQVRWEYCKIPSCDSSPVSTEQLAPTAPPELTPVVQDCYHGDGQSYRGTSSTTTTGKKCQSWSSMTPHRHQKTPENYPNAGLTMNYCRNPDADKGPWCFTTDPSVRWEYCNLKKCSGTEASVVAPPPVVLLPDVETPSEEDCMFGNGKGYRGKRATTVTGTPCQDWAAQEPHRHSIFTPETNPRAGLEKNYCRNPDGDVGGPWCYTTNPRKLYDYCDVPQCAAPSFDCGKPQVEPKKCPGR
Sequence of Plasminogen (P00747 581-810 limits assumed): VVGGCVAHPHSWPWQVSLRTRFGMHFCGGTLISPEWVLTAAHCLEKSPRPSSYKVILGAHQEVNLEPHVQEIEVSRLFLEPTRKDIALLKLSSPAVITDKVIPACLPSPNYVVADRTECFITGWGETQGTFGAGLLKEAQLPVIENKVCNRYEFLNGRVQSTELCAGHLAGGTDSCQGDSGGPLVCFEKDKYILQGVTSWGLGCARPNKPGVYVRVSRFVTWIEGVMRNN

## COC(=O)Nc1ccc2c(c1)NC(=O)CCCC[C@H](NC(=O)/C=C/c1cc(Cl)ccc1-n1cnnn1)c1nc-2c[nH]1
[1]
  Vd: 0.3 L/kg
[2]
  fraction unbound: 0.016
[3]
  half-life: 60 min
[4]
  AUC: 0.024 µM·h
[5]
  clearance: 10 mL/min/kg
[6]
  bioavailability: 0%

## COC(=O)Nc1ccc2c(c1)NC(=O)[C@H](C)CCC[C@H](NC(=O)c1ncn(-c3cccc(Cl)c3F)c1C)c1cc-2ccn1.Cl.Cl
[7]
  half-life: 55 min
[8]
  Ki: > 21.5 µM
Coagulation factor X
  Ki: > 13.3 µM
Coagulation factor VII
  Ki: > 13.3 µM
[9]
  half-life: 68 min
Coagulation factor XII
  Ki: 2.53 µM
Plasminogen
  Ki: > 15 µM
Prothrombin
  Ki: > 11.5 µM
[10]
  half-life: 73 min
[11]
  Papp A→B: < 1.5 ×10⁻⁶ cm/s
[12]
  Papp B→A: 36.7 ×10⁻⁶ cm/s
Trypsin
  Ki: > 10 µM
Coagulation factor IX
  Ki: > 27.1 µM
Plasma kallikrein
  Ki: 0.0063 µM
[13]
  half-life: 48 min
[14]
  Ki: > 15.1 µM

## COC(=O)Nc1ccc2c(c1)NC(=O)[C@H](C)CCC[C@H](NC(=O)/C=C/c1cc(Cl)ccc1-n1cnnn1)c1cc-2ccn1.O=C(O)C(F)(F)F
[7]
  half-life: 39 min
[15]
  half-life: 690 min
[9]
  half-life: 54 min
[16]
  bioavailability: 0%
Plasma
  EC1.5: 0.62 µM
[17]
  Vd: 3.4 L/kg
[11]
  Papp A→B: 3.8 ×10⁻⁶ cm/s
[12]
  Papp B→A: 6.6 ×10⁻⁶ cm/s
[18]
  clearance: 4.6 mL/min/kg
